Test results as given in PubChem BioAssay AID256 (DTP/NCI, 2004).
Several values for one entry are separate records, joined by “and”; a condition that tells them apart may be missing. Identical values can stand only once. Toxic doses and inconclusive results are not listed.

System: CD2F1 mice, L1210 leukemia ip, survival T/C
Experiment: NCI In Vivo Anticancer Drug Screen. Data for tumor model L1210 Leukemia (intraperitoneal) in CD2F1 (CDF1) mice
Details: endpoint: mean survival time, higher = longer survival
Summary of the method: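 Antitumor effect is scored in animals hosting a serially transplanted tumor. Values compare compound-dosed animals against vehicle-only controls as a simple quotient.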

[1] = dose: 100.0 mg/kg/injection, schedule: Q01DX001 (ip), vehicle: other
[2] = dose: 200.0 mg/kg/injection, schedule: Q01DX001 (ip), vehicle: other
[3] = dose: 400.0 mg/kg/injection, schedule: Q01DX001 (ip), vehicle: other
[4] = dose: 75.0 mg/kg/injection, schedule: Q01DX001 (ip), vehicle: saline
[5] = dose: 150.0 mg/kg/injection, schedule: Q01DX001 (ip), vehicle: saline
[6] = dose: 100.0 mg/kg/injection, schedule: Q01DX009 (ip), vehicle: saline with Tween-80
[7] = dose: 200.0 mg/kg/injection, schedule: Q01DX009 (ip), vehicle: saline with Tween-80
[8] = dose: 400.0 mg/kg/injection, schedule: Q01DX009 (ip), vehicle: saline with Tween-80
[9] = dose: 100.0 mg/kg/injection, schedule: Q04DX003 (ip), vehicle: saline with Tween-80
[10] = dose: 200.0 mg/kg/injection, schedule: Q04DX003 (ip), vehicle: saline with Tween-80
[11] = dose: 400.0 mg/kg/injection, schedule: Q04DX003 (ip), vehicle: saline with Tween-80
[12] = dose: 100.0 mg/kg/injection, schedule: Q04DX002 (ip), vehicle: saline with Tween-80
[13] = dose: 100.0 mg/kg/injection, schedule: Q01DX009 (ip), vehicle: Klucel (hydroxypropylcellulose) (HPC)
[14] = dose: 25.0 mg/kg/injection, schedule: Q04DX002 (ip), vehicle: saline with Tween-80
[15] = dose: 50.0 mg/kg/injection, schedule: Q04DX002 (ip), vehicle: saline with Tween-80

SMILES: CC(=O)N1c2ccc(Br)cc2C(=O)C1C (stereo not drawn)
- T/C [1]: 98 % of control
- T/C [2]: 104 % of control
- T/C [3]: 95 % of control

SMILES: OCCCl
- T/C [4]: 104 % of control
- T/C [5]: 103 % of control

SMILES: O=S(=O)(O)O.[NH-]C1CCCCC1[NH-].[Pt+2] (stereo not drawn)
- T/C (dose: 0.04 mg/kg/injection, schedule: Q01DX009 (ip), vehicle: water): 109 % of control
- T/C (dose: 0.05 mg/kg/injection, schedule: Q04DX003 (ip), vehicle: water): 110 % of control
- T/C (dose: 0.32 mg/kg/injection, schedule: Q01DX001 (ip), vehicle: water): 120 % of control
- T/C (dose: 0.63 mg/kg/injection, schedule: Q01DX001 (ip), vehicle: dextrose): 124 % of control
- T/C (dose: 0.63 mg/kg/injection, schedule: Q04DX003 (oral), vehicle: water): 96 % of control
- T/C (dose: 0.78 mg/kg/injection, schedule: Q04DX003 (ip), vehicle: dextrose): 119 % of control
- T/C (dose: 1.2 mg/kg/injection, schedule: Q01DX009 (oral), vehicle: water): 100 % of control
- T/C (dose: 1.25 mg/kg/injection, schedule: Q01DX001 (ip), vehicle: dextrose): 119 % of control
- T/C (dose: 1.25 mg/kg/injection, schedule: Q01DX001 (oral), vehicle: water): 98 % of control
- T/C (dose: 1.25 mg/kg/injection, schedule: Q04DX003 (oral), vehicle: water): 98 % of control
- T/C (dose: 1.56 mg/kg/injection, schedule: Q04DX003 (ip), vehicle: saline with Tween-80): 100 % of control
- T/C (dose: 2.4 mg/kg/injection, schedule: Q01DX009 (oral), vehicle: water): 97 % of control
- T/C (dose: 2.5 mg/kg/injection, schedule: Q01DX001 (ip), vehicle: dextrose): 124 % of control
- T/C (dose: 3.12 mg/kg/injection, schedule: Q04DX003 (ip), vehicle: saline with Tween-80): 110 % of control
- T/C (dose: 5.0 mg/kg/injection, schedule: Q01DX001 (oral), vehicle: water): 100 % of control
- T/C (dose: 10.0 mg/kg/injection, schedule: Q01DX001 (ip), vehicle: dextrose): 109 % of control
- T/C (dose: 10.0 mg/kg/injection, schedule: Q04DX003 (oral), vehicle: water): 98 % of control
- T/C (dose: 12.5 mg/kg/injection, schedule: Q04DX003 (ip), vehicle: dextrose): 110 % of control
- T/C (dose: 12.5 mg/kg/injection, schedule: Q04DX003 (ip), vehicle: saline): 93 % of control
- T/C (dose: 40.0 mg/kg/injection, schedule: Q01DX001 (oral), vehicle: water): 109 % of control

SMILES: O=C1CCC2(Cc3ccccc3C2=O)O1 (stereo not drawn)
- T/C [4]: 94 % of control
- T/C [5]: 96 % of control
- T/C (dose: 300.0 mg/kg/injection, schedule: Q01DX001 (ip), vehicle: saline): 94 % of control

SMILES: C[n+]1c(-c2cccc(-c3ccccc3)c2)c2cc(N)ccc2c2ccccc21
- T/C (dose: 0.78 mg/kg/injection, schedule: Q01DX009 (ip), vehicle: other): 92 % of control
- T/C (dose: 1.56 mg/kg/injection, schedule: Q01DX009 (ip), vehicle: other): 92 % of control
- T/C (dose: 3.13 mg/kg/injection, schedule: Q01DX009 (ip), vehicle: other): 104 % of control
- T/C (dose: 6.25 mg/kg/injection, schedule: Q01DX009 (ip), vehicle: other): 108 % of control and 110 % of control

SMILES: COP(=O)(O)c1ccccc1 (tested in a mixture with another compound)
- T/C (dose: 100.0 mg/kg/injection, schedule: Q04DX003 (ip), vehicle: saline): 103 % of control
- T/C (dose: 200.0 mg/kg/injection, schedule: Q04DX003 (ip), vehicle: saline): 106 % of control
- T/C (dose: 400.0 mg/kg/injection, schedule: Q04DX003 (ip), vehicle: saline): 95 % of control

SMILES: O=C(NCCN=Cc1ccccc1)c1ccccc1
- T/C (dose: 100.0 mg/kg/injection, schedule: Q01DX001 (ip), vehicle: saline with Tween-80): 108 % of control
- T/C [6]: 98 % of control
- T/C (dose: 200.0 mg/kg/injection, schedule: Q01DX001 (ip), vehicle: saline with Tween-80): 101 % of control
- T/C [7]: 101 % of control
- T/C (dose: 400.0 mg/kg/injection, schedule: Q01DX001 (ip), vehicle: saline with Tween-80): 95 % of control
- T/C [8]: 97 % of control

SMILES: O=C(CCC(NC(=O)OCc1ccccc1)C(=O)O)OCc1ccccc1 (stereo not drawn)
- T/C [9]: 100 % of control
- T/C [10]: 101 % of control
- T/C [11]: 94 % of control

SMILES: C1CCC2(CC1)NCCO2
- T/C (dose: 100.0 mg/kg/injection, schedule: Q01DX009 (ip), vehicle: saline sonified): 96 % of control
- T/C (dose: 200.0 mg/kg/injection, schedule: Q01DX009 (ip), vehicle: saline sonified): 93 % of control

SMILES: CCOC(=O)C1(C2=NC(C)(C)CC(C)O2)CCCCC1 (stereo not drawn)
- T/C (dose: 100.0 mg/kg/injection, schedule: Q04DX003 (ip), vehicle: acetone): 96 % of control
- T/C (dose: 200.0 mg/kg/injection, schedule: Q04DX003 (ip), vehicle: acetone): 90 % of control
- T/C (dose: 400.0 mg/kg/injection, schedule: Q04DX003 (ip), vehicle: acetone): 105 % of control

SMILES: CC1(C)CC(O)C2(C)CCC3(C)C(=CCC4C5(C)CCC(O)C(C)(CO)C5CCC43C)C2C1 (stereo not drawn) (tested in a mixture with another compound)
- T/C [12]: 102 % of control
- T/C (dose: 200.0 mg/kg/injection, schedule: Q04DX002 (ip), vehicle: saline with Tween-80): 98 % of control
- T/C (dose: 400.0 mg/kg/injection, schedule: Q04DX002 (ip), vehicle: saline with Tween-80): 107 % of control

SMILES: COC(=O)c1cc2ccccc2o1
- T/C [6]: 100 % of control
- T/C [9]: 108 % of control
- T/C [7]: 100 % of control
- T/C [10]: 108 % of control
- T/C [8]: 105 % of control
- T/C [11]: 94 % of control

SMILES: Cc1ccc(N=Nc2ccc(N(C)C)cc2)c2cccnc12
- T/C [6]: 104 % of control

SMILES: CC1(C)CC(=O)C2=C(C1)OC1(O)CC(C)(C)CC(=O)C1C2c1ccccc1Cl (stereo not drawn)
- T/C [6]: 93 % of control
- T/C [9]: 92 % of control
- T/C [7]: 93 % of control
- T/C [10]: 94 % of control
- T/C [8]: 95 % of control
- T/C [11]: 96 % of control

SMILES: CC(=O)Nc1ccc(S(N)(=O)=O)cc1
- T/C (dose: 25.0 mg/kg/injection, schedule: Q01DX009 (ip), vehicle: Klucel (hydroxypropylcellulose) (HPC)): 100 % of control
- T/C (dose: 50.0 mg/kg/injection, schedule: Q01DX009 (ip), vehicle: Klucel (hydroxypropylcellulose) (HPC)): 95 % of control
- T/C [13]: 100 % of control

SMILES: Cc1ccc(NCC(=O)O)c([N+](=O)[O-])c1
- T/C [9]: 95 % of control
- T/C [10]: 103 % of control

SMILES: O=c1cc(CCl)oc(Br)c1O
- T/C [14]: 98 % of control
- T/C [15]: 98 % of control
- T/C [12]: 91 % of control

SMILES: CCCN(CCC)N=Nc1ccccc1
- T/C [4]: 104 % of control
- T/C [5]: 101 % of control

SMILES: O=S(=O)(Nc1ccccn1)c1ccc(Cl)cc1
- T/C [9]: 91 % of control
- T/C [10]: 95 % of control
- T/C [11]: 90 % of control

SMILES: O=C(N/N=C/c1ccc(O)cc1)c1ccccc1
- T/C [1]: 100 % of control
- T/C [13]: 100 % of control
- T/C [2]: 94 % of control
- T/C (dose: 200.0 mg/kg/injection, schedule: Q01DX009 (ip), vehicle: Klucel (hydroxypropylcellulose) (HPC)): 96 % of control
- T/C [3]: 103 % of control
- T/C (dose: 400.0 mg/kg/injection, schedule: Q01DX009 (ip), vehicle: Klucel (hydroxypropylcellulose) (HPC)): 94 % of control

SMILES: COc1ccccc1NC(=O)Oc1ccc(C2CCCCC2)cc1
- T/C (dose: 25.0 mg/kg/injection, schedule: Q01DX009 (ip), vehicle: saline with Tween-80): 108 % of control
- T/C [14]: 100 % of control
- T/C (dose: 50.0 mg/kg/injection, schedule: Q01DX009 (ip), vehicle: saline with Tween-80): 97 % of control
- T/C [15]: 100 % of control
- T/C [6]: 104 % of control
- T/C [12]: 92 % of control and 98 % of control

SMILES: O=c1[nH]cccc1[N+](=O)[O-]
- T/C [9]: 106 % of control
- T/C [10]: 106 % of control
- T/C [11]: 101 % of control

SMILES: Cc1c2c(O)c(O)c(O)cc2c[n+]2ccccc12
- T/C (dose: 50.0 mg/kg/injection, schedule: Q01DX009 (ip), vehicle: saline): 101 % of control

SMILES: COc1cc2c(c(OC)c1OC)-c1ccc(OC)c(=O)cc1[C@@H](N(C)C(C)=O)CC2
- T/C (dose: 0.06 mg/kg/injection, schedule: Q01DX005 (ip), vehicle: Klucel (hydroxypropylcellulose) (HPC)): 103 % of control
- T/C (dose: 0.13 mg/kg/injection, schedule: Q01DX005 (ip), vehicle: Klucel (hydroxypropylcellulose) (HPC)): 104 % of control
- T/C (dose: 0.25 mg/kg/injection, schedule: Q01DX005 (ip), vehicle: Klucel (hydroxypropylcellulose) (HPC)): 110 % of control
- T/C (dose: 1.0 mg/kg/injection, schedule: Q01DX005 (ip), vehicle: Klucel (hydroxypropylcellulose) (HPC)): 150 % of control

SMILES: N#CCC(O)(/C=C/c1ccccc1)c1ccccc1 (stereo not drawn)
- T/C [6]: 95 % of control
- T/C [9]: 97 % of control
- T/C [7]: 91 % of control
- T/C [8]: 89 % of control
- T/C [11]: 88 % of control
